Our source for the EC50 values is patent US20150157682A1, “VALERIAN EXTRACTS AND USES THEREOF” (priority 2012, published 2015).

In the assay the target is benzodiazepine receptors (3H-flunitrazepam labelled binding sites). Description: 3H-flunitrazepam competition binding assay, crude synaptosomal membranes of rat frontal cortex. The settings on record: 1 nM 3H-flunitrazepam.

The structures appear in SMILES notation.

Procedure: For the binding experiment male RjHan:WI rats (Janvier, Le Genest-Saint-Isle, France) were used. […] The animals were housed in groups of 5 in Macrolon IV cages.
For the ^3H-GABA binding assay tissue (dissected rat frontal cortex) was homogenized in 50 mM Tris-HCl buffer pH 7.4 containing 120 mM NaCl, 5 mM KCl, 2 mM CaCl2 and 1 mM MgCl2; for ^3H-flunitrazepam it was homogenized in 50 mM Tris-HCl buffer pH 7.4 containing 1 mM EGTA, 10 mM EDTA and 3 mM MgCl2, centrifuged (50.000 g, 15 min) and washed twice with the corresponding buffer. The resulting pellet was resuspended with buffer. […] Specific binding was calculated by subtracting non-specific binding—defined as that seen in the presence of 1 μM unlabelled GABA or 1 μM diazepam or chlordiazepoxide—from the total binding obtained with radioligand alone. In parallel VE-1, VE-2 and AVA were used for all binding assays. The incubation was terminated by addition of ice-cold buffer and rapid filtration through glass fibre filters. The filters were washed, dried, a scintillation cocktail was added, and radioactivity was counted using a β-counter (Beckman Coulter, Germany).

With `CN1C(=O)CN=C(c2ccccc2)c2cc(Cl)ccc21` [Diazepam, diazepam], the EC50 (as a rule, the concentration that produces a half-maximal response) was determined as 400 ± 50 nM.
